Tests used:
HvMsrA (MsrA-StrepII) = target: T1, HvMsrA (MsrA-StrepII) (Haloferax volcanii, UniProt D4GQQ9); assay: MSO-peptide reductase assay, HPLC of dabsyl-Met; type: biochemical
T1 construct: gene msrA1; C-terminal StrepII tag; expressed in E. coli Rosetta (DE3), Strep-Tactin and Superdex 75 purified; 21 kDa
T1 sequence (D4GQQ9 1-189): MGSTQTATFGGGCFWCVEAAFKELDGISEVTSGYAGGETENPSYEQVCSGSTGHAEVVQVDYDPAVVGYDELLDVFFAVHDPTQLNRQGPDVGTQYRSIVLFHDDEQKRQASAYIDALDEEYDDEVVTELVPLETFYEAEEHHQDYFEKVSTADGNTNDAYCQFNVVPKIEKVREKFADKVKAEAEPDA

HvMsrB (MsrB-StrepII) = target: T2, HvMsrB (MsrB-StrepII) (Haloferax volcanii, UniProt D4GVV0); assay: MSO-peptide reductase assay of cell lysate, HPLC of dabsyl-Met; type: biochemical; conditions: 400 µg cell extract, 200 µM dabsyl-MSO, 20 mM DTT, 25 mM Tris-Cl pH 7.5, 37°C
T2 construct: StrepII-tagged, expressed from plasmid in Hfx. volcanii deletion strains; cell lysate
T2 sequence (D4GVV0 entry or part of it): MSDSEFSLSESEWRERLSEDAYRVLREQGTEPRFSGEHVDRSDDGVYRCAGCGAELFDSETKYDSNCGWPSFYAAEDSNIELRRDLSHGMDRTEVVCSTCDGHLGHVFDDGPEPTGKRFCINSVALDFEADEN

| Structure (SMILES) | MSO-peptide reductase assay, HPLC of dabsyl-Met (HvMsrA (MsrA-StrepII); inhibitor, 0 to 20 mM MSO, dabsyl-MSO substrate, DTT, Tris-Cl pH 7.5, NaCl 0.2 to 2 M, 37°C, probably competing substrate) | MSO-peptide reductase assay of cell lysate, HPLC of dabsyl-Met (HvMsrB (MsrB-StrepII)) | MSO-peptide reductase assay, HPLC of dabsyl-Met (HvMsrA (MsrA-StrepII); 200 µM dabsyl-MSO, 20 mM DTT, 25 mM Tris-Cl pH 7.5, 37°C, 30 min) |
| --- | --- | --- | --- |
| C[S+]([O-])CC[C@H](N)C(=O)O (stereo partly drawn) [MSO] | DMSO and MSO inhibited the MSO-peptide reductase activity of HvMsrA in a dose-dependent manner |  |  |
| CN(C)c1ccc(N=Nc2ccc(S(=O)(=O)N[C@@H](CC[S+](C)[O-])C(=O)O)cc2)cc1 (stereo partly drawn) [dabsyl-MSO] |  | HvMsrB was also found to catalyze MSO-peptide reductase activity | HvMsrA was found to catalyze the reduction of the MSO peptide |
